Measurements taken from ChEMBL document CHEMBL1151767, “Lipidyl pseudopteranes A-F: isolation, biomimetic synthesis, and PTP1B inhibitory activity of a new class of pseudopteranoids from the Gorgonian Pseudopterogorgia acerosa” (J Nat Prod, 2008).
The source made the active and inactive calls. The calls are words filed in the database; no cut-off is given here.

Legend:
[1] = biological target: T1, Dual specificity protein phosphatase 22 (Homo sapiens) (UniProt Q9NRW4); assay: Inhibition of GST-tagged PTP MKPX at 100 ug/mL
T1 sequence (whole entry): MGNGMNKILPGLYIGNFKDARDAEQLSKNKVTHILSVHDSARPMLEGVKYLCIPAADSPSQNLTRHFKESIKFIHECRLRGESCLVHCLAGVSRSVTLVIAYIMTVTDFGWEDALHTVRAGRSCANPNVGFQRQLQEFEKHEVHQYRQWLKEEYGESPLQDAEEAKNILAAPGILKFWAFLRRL

[2] = biological target: Tyrosine-protein phosphatase non-receptor type 6 (Homo sapiens) (UniProt P29350); assay: Inhibition of GST-tagged PTP SHP1 at 100 ug/mL
Tyrosine-protein phosphatase non-receptor type 6 (Homo sapiens), sequence (P29350 whole entry): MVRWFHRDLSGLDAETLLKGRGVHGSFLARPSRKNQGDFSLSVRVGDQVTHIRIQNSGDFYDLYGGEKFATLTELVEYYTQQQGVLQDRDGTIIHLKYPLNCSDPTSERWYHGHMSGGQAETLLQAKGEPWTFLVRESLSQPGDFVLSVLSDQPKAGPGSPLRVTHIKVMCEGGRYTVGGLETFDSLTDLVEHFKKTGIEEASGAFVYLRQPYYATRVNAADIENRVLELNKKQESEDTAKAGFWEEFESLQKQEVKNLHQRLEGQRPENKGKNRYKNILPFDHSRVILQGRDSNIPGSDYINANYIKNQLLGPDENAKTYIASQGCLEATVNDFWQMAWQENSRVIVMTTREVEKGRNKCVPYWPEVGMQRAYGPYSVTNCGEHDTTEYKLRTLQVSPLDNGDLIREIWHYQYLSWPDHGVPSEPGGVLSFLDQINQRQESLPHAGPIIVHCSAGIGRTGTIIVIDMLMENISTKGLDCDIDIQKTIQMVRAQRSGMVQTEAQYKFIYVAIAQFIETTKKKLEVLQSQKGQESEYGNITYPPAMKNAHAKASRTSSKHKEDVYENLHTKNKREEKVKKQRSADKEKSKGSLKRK

[3] = biological target: T2, Tyrosine-protein phosphatase non-receptor type 1 (Homo sapiens) (UniProt P18031); assay: Inhibition of GST-tagged PTP1B at 100 ug/mL
T2 sequence (whole entry): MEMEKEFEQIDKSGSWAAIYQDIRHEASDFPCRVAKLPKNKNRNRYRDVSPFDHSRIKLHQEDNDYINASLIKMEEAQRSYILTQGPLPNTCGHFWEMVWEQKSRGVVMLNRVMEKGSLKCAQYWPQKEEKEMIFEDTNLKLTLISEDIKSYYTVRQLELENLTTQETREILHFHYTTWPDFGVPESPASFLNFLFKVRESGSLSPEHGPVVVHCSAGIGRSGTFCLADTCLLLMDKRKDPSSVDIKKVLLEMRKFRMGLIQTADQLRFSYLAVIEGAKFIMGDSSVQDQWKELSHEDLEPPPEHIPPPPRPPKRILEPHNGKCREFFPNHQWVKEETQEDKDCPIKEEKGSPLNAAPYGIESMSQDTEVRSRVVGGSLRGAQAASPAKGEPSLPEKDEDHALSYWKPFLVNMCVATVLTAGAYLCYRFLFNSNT

[4] = biological target: Receptor-type tyrosine-protein phosphatase F (Homo sapiens) (UniProt P10586); assay: Inhibition of GST-tagged PTP LAR at 100 ug/mL
Receptor-type tyrosine-protein phosphatase F (Homo sapiens), sequence (P10586 whole entry): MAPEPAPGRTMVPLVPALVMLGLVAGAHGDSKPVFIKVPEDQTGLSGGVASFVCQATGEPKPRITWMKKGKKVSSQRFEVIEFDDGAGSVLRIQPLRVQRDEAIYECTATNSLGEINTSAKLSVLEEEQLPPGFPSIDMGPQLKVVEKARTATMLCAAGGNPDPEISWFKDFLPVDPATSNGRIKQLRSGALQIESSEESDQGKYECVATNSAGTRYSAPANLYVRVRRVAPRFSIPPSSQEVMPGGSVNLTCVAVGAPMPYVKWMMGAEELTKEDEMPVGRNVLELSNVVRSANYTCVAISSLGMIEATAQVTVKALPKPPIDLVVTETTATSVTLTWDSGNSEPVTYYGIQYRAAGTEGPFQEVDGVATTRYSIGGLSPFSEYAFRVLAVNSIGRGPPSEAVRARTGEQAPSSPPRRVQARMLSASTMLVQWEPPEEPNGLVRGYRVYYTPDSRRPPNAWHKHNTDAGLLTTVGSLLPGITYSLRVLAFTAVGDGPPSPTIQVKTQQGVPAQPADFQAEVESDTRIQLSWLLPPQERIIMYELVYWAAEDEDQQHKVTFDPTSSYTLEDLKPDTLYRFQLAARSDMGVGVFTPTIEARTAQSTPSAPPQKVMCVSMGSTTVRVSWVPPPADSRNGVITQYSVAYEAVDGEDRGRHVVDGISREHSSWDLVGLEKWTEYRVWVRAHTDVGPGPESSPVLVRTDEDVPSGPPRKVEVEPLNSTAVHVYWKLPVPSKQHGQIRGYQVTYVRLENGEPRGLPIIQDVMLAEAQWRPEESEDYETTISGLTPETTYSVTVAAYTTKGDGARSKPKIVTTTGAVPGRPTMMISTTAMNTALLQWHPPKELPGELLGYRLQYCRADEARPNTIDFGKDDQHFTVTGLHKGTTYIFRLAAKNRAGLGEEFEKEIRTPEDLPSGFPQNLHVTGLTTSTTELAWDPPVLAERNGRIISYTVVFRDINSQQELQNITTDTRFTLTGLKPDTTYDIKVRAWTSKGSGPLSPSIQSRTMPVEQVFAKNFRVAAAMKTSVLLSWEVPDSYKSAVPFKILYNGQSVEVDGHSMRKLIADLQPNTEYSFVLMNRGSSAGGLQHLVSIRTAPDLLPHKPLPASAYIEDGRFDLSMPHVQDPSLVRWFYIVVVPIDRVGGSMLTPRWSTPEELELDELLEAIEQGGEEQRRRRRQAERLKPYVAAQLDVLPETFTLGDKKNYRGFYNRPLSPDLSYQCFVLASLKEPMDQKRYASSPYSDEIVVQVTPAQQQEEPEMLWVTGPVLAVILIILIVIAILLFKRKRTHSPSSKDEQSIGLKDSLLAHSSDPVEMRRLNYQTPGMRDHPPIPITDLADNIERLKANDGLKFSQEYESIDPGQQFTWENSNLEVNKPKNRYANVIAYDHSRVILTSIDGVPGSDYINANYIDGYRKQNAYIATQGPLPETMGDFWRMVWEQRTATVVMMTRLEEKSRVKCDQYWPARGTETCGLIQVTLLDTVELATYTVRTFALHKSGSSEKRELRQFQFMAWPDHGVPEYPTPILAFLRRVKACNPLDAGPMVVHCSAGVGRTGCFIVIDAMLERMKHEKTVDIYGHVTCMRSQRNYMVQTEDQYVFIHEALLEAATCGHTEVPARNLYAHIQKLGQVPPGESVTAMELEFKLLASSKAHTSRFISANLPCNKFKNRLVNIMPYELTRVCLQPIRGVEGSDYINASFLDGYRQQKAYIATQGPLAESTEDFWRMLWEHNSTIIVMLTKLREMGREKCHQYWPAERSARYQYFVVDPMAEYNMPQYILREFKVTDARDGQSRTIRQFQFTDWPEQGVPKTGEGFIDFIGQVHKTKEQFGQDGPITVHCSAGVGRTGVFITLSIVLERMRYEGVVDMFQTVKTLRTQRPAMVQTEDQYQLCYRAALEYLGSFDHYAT

[5] = biological target: T3, Tyrosine-protein phosphatase non-receptor type 1 (Homo sapiens, UniProt P18031); assay: Inhibition of GST-tagged PTP1B
T3 sequence (P18031 whole entry): T2 sequence (whole entry)

Row | SMILES | Activity [1] | Activity [2] | Activity [3] | Activity [4] | IC50 [5] [µM]
1 | C=C(C)[C@H]1CC2=C(C(=O)OC)C=C(O2)[C@H](C(=C)C)[C@H]2C=C(C(=O)O2)C(OC(=O)CCCCCCCCCCCCCCC)C1 (some centres undefined) | inactive | inactive | Active | inactive | 
2 | C=C(C)[C@H]1C2=CC(C(=O)OC)=C(C[C@H](C(=C)C)[C@@H](O)C(OC(=O)CCCCCCCCCCCCCCC)C3=C[C@H]1OC3=O)O2 (single isomer, unassigned) [LIPIDYL PSEUDOPTERANE A] | inactive | inactive | Active | inactive | 113
